Laboratory results as given in ChEMBL document CHEMBL3046842, “Antimicrobial and insect antifeedant activities of some Trogers bases” (2012).
The source made the active and inactive calls.

Legend:
[1] = system: Pseudomonas; test: Antibacterial activity against Pseudomonas at 250 ug/ml after 24 to 45 hrs by disc diffusion method; assay type: functional; details: read-out: IZ
[2] = system: Escherichia coli; test: Antibacterial activity against Escherichia coli at 250 ug/ml after 24 to 45 hrs by disc diffusion method; assay type: functional; details: read-out: IZ
[3] = system: Klebsiella pneumoniae; test: Antibacterial activity against Klebsiella pneumoniae at 250 ug/ml after 24 to 45 hrs by disc diffusion method; assay type: functional; details: read-out: IZ
[4] = system: Penicillium; test: Antifungal activity against Penicillium at 50 ug/ml after 72 hrs by disc diffusion method; assay type: functional, organism-based
[5] = system: Achaea janata; test: Antifeedant activity against fourth instar larvae of Achaea janata fed on compound treated castor leaves at 200 ppm after 24 hrs by leaf disc method; assay type: functional, organism-based
[6] = system: Candida albicans; test: Antifungal activity against Candida albicans at 250 ug/ml after 72 hrs by disc diffusion method; assay type: functional; details: for zone of inhibition at 250 µg/mL: read-out: IZ
[7] = system: Enterococcus faecalis; test: Antibacterial activity against Enterococcus faecalis at 250 ug/ml after 24 to 45 hrs by disc diffusion method; assay type: functional; details: for zone of inhibition at 250 µg/mL: read-out: IZ
[8] = system: Staphylococcus aureus; test: Antibacterial activity against Staphylococcus aureus at 250 ug/ml after 24 to 45 hrs by disc diffusion method; assay type: functional; details: read-out: IZ
[9] = system: Aspergillus niger; test: Antifungal activity against Aspergillus niger at 50 ug/ml after 72 hrs by disc diffusion method; assay type: functional, organism-based
[10] = system: Proteus vulgaris; test: Antibacterial activity against Proteus vulgaris at 250 ug/ml after 24 to 45 hrs by disc diffusion method; assay type: functional; details: for zone of inhibition at 250 µg/mL: read-out: IZ

| Compound | zone of inhibition at 250 µg/mL [1] | zone of inhibition at 250 µg/mL [2] | zone of inhibition at 250 µg/mL [3] | Activity [4] | Activity [5] | zone of inhibition at 250 µg/mL [6] | Activity [7] | zone of inhibition at 250 µg/mL [8] | Activity [9] | zone of inhibition at 250 µg/mL [10] | zone of inhibition at 250 µg/mL [7] | Activity [10] | Activity [6] |
| --- | --- | --- | --- | --- | --- | --- | --- | --- | --- | --- | --- | --- | --- |
| Brc1ccc2c(c1)N1Cc3ccc(Br)cc3N(C2)C1 | 8 mm | 8 mm | 8 mm | inactive | Active | 8 mm | inactive | 13 mm | inactive | 8 mm | – | – | – |
| Cc1cc(Cl)cc2c1N1Cc3cc(Cl)cc(C)c3N(C2)C1 | 13 mm | 8 mm | 13 mm | Active | Active | 8 mm | – | 8 mm | inactive | 8 mm | 13 mm | – | – |
| Cc1cc(Br)c2c(c1)CN1CN2Cc2cc(C)cc(Br)c21 | 13 mm | 13 mm | 13 mm | inactive | – | 8 mm | inactive | 13 mm | inactive | 13 mm | – | – | – |
| Cc1cc(C)c2c(c1)CN1CN2Cc2cc(C)cc(C)c21 | 8 mm | 13 mm | 13 mm | inactive | – | 13 mm | – | 13 mm | inactive | 13 mm | 8 mm | – | – |
| Cc1cc2c(cc1F)N1Cc3cc(C)c(F)cc3N(C2)C1 | 13 mm | 13 mm | 13 mm | inactive | Active | 13 mm | – | 13 mm | inactive | 13 mm | 8 mm | – | – |
| Cc1ccc2c(c1C)N1Cc3ccc(C)c(C)c3N(C2)C1 | 8 mm | 13 mm | 13 mm | Active | – | 8 mm | – | 8 mm | inactive | – | 8 mm | inactive | – |
| N#Cc1ccc2c(c1)CN1CN2Cc2cc(C#N)ccc21 | 13 mm | 13 mm | 13 mm | inactive | – | 13 mm | inactive | 13 mm | inactive | 13 mm | – | – | – |
| Fc1cccc2c1N1Cc3cccc(F)c3N(C2)C1 | 8 mm | 13 mm | 8 mm | inactive | Active | 8 mm | inactive | 8 mm | inactive | 8 mm | – | – | – |
| Cc1cc(C#N)c2c(c1)CN1CN2Cc2cc(C)cc(C#N)c21 | 8 mm | 13 mm | 8 mm | inactive | – | 13 mm | inactive | 8 mm | inactive | 8 mm | – | – | – |
| COc1cc(C)c2c(c1)CN1CN2Cc2cc(OC)cc(C)c21 | 20 mm | 20 mm | 20 mm | Active | – | 20 mm | – | 20 mm | inactive | 8 mm | 13 mm | – | – |
| Cc1cccc2c1N1Cc3cccc(C)c3N(C2)C1 | 13 mm | 8 mm | 13 mm | inactive | – | 13 mm | – | 8 mm | inactive | 8 mm | 13 mm | – | – |
| Cc1cc(N)c2c(c1)CN1CN2Cc2cc(C)cc(N)c21 | 13 mm | 13 mm | 13 mm | Active | – | 13 mm | inactive | 13 mm | inactive | 13 mm | – | – | – |
| COc1ccc2c(c1)CN1CN2Cc2cc(OC)ccc21 | 20 mm | 20 mm | 13 mm | Active | – | 20 mm | – | 20 mm | inactive | 13 mm | 20 mm | – | – |
| Cc1cc2c(cc1Br)N1Cc3cc(C)c(Br)cc3N(C2)C1 | 8 mm | 8 mm | 8 mm | inactive | – | 13 mm | – | 13 mm | inactive | 8 mm | 13 mm | – | – |
| Cc1cc(N)cc2c1N1Cc3cc(N)cc(C)c3N(C2)C1 | 13 mm | 13 mm | 13 mm | inactive | – | 13 mm | – | 13 mm | inactive | 13 mm | 8 mm | – | – |
| CCCOC(=O)c1ccc2c(c1)CN1CN2Cc2cc(C(=O)OCCC)ccc21 | 20 mm | 13 mm | 20 mm | Active | – | 13 mm | – | 20 mm | Active | 13 mm | 20 mm | – | – |
| Cc1ccc2c(c1O)CN1CN2Cc2c1ccc(C)c2O | 8 mm | 8 mm | 8 mm | inactive | – | 13 mm | – | 13 mm | inactive | 8 mm | 13 mm | – | – |
| c1ccc2c(c1)CN1CN2Cc2ccccc21 | 8 mm | 8 mm | 8 mm | inactive | – | – | inactive | 13 mm | inactive | 8 mm | – | – | inactive |
| O=[N+]([O-])c1ccc2c(c1)CN1CN2Cc2cc([N+](=O)[O-])ccc21 | 13 mm | 20 mm | 13 mm | inactive | – | – | – | 13 mm | inactive | 13 mm | 20 mm | – | inactive |
| CCOc1ccc2c(c1)CN1CN2Cc2cc(OCC)ccc21 | 20 mm | 20 mm | 13 mm | Active | – | 8 mm | inactive | 20 mm | Active | 13 mm | – | – | – |
| CCOC(=O)c1ccc2c(c1)CN1CN2Cc2cc(C(=O)OCC)ccc21 | 20 mm | 20 mm | 13 mm | inactive | – | – | – | 20 mm | inactive | 13 mm | 20 mm | – | inactive |
| Cc1ccc2c(c1)CN1CN2Cc2cc(C)ccc21 | 8 mm | 8 mm | 8 mm | inactive | – | 13 mm | inactive | 13 mm | inactive | 8 mm | – | – | – |
| Cc1cc([N+](=O)[O-])cc2c1N1Cc3cc([N+](=O)[O-])cc(C)c3N(C2)C1 | 13 mm | 13 mm | 13 mm | inactive | – | 13 mm | – | 13 mm | inactive | 13 mm | 8 mm | – | – |
| CC(=O)c1cccc2c1N1Cc3cccc(C(C)=O)c3N(C2)C1 | 8 mm | 8 mm | 8 mm | inactive | – | 20 mm | inactive | 13 mm | Active | 8 mm | – | – | – |
| Nc1ccc2c(c1)CN1CN2Cc2cc(N)ccc21 | 13 mm | 13 mm | 13 mm | inactive | – | 13 mm | inactive | 13 mm | inactive | 13 mm | – | – | – |
